{"source": "PubChem BioAssay (NCI)", "experiment_in_all_cases": "DTP human tumour cell line panel, 48 h", "key": {"[1]": {"test_system": "786-0 renal"}, "[2]": {"test_system": "A498 renal"}, "[3]": {"test_system": "A549 NSCLC"}, "[4]": {"test_system": "ACHN renal"}, "[5]": {"test_system": "BT-549 breast"}, "[6]": {"test_system": "CAKI-1 renal"}, "[7]": {"test_system": "CCRF-CEM leukemia"}, "[8]": {"test_system": "COLO 205 colon"}, "[9]": {"test_system": "DU-145 prostate"}, "[10]": {"test_system": "EKVX NSCLC"}, "[11]": {"test_system": "HCC-2998 colon"}, "[12]": {"test_system": "HCT-116 colon"}, "[13]": {"test_system": "HCT-15 colon"}, "[14]": {"test_system": "HOP-62 NSCLC"}, "[15]": {"test_system": "HOP-92 NSCLC"}, "[16]": {"test_system": "HS 578T breast"}, "[17]": {"test_system": "HT29 colon"}, "[18]": {"test_system": "K-562 leukemia"}, "[19]": {"test_system": "KM12 colon"}, "[20]": {"test_system": "M14 melanoma"}, "[21]": {"test_system": "MALME-3M melanoma"}, "[22]": {"test_system": "MCF7 breast"}, "[23]": {"test_system": "MDA-MB-231 breast"}, "[24]": {"test_system": "MDA-MB-435"}, "[25]": {"test_system": "MOLT-4 leukemia"}, "[26]": {"test_system": "NCI-H23 lung"}, "[27]": {"test_system": "NCI-H460 lung"}, "[28]": {"test_system": "NCI-H522 lung"}, "[29]": {"test_system": "NCI/ADR-RES ovarian"}, "[30]": {"test_system": "OVCAR-3 ovarian"}, "[31]": {"test_system": "OVCAR-5 ovarian"}, "[32]": {"test_system": "OVCAR-8 ovarian"}, "[33]": {"test_system": "PC-3 prostate"}, "[34]": {"test_system": "RPMI-8226 leukemia"}, "[35]": {"test_system": "RXF 393 renal"}, "[36]": {"test_system": "SF-268 CNS"}, "[37]": {"test_system": "SF-539 CNS"}, "[38]": {"test_system": "SK-MEL-2 melanoma"}, "[39]": {"test_system": "SK-MEL-28 melanoma"}, "[40]": {"test_system": "SK-MEL-5 melanoma"}, "[41]": {"test_system": "SK-OV-3 ovarian"}, "[42]": {"test_system": "SN12C renal"}, "[43]": {"test_system": "SNB-19 CNS"}, "[44]": {"test_system": "SNB-75 CNS"}, "[45]": {"test_system": "SR leukemia"}, "[46]": {"test_system": "SW-620 colon"}, "[47]": {"test_system": "T-47D breast"}, "[48]": {"test_system": "TK-10 renal"}, "[49]": {"test_system": "U251 CNS"}, "[50]": {"test_system": "UACC-257 melanoma"}, "[51]": {"test_system": "UACC-62 melanoma"}, "[52]": {"test_system": "UO-31 renal"}}, "note": "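Cells were grown in 96-well plates and exposed to each compound for 48 hours at five concentrations; endpoints were interpolated linearly between bracketing concentrations, or set to the highest concentration if not reached. Abbreviation: GI50, concentration required for 50% inhibition of growth. At the TGI there is no net growth.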", "data": [{"compound": "COC(=O)C1=C(OC(=O)c2ccc(Cl)cc2)C(C(=O)OC)[C@@]2(O)[C@@H](C(=O)OC)C(c3ccccc3Cl)C[C@@H]1[C@@H]2C(=O)OC", "note": "(some centres undefined)", "values": [{"measurement": "GI50", "setting": "[1]", "result": 7.27, "unit": "µM"}, {"measurement": "TGI", "setting": "[1]", "result": "> 100", "unit": "µM"}, {"measurement": "GI50", "setting": "[2]", "result": 2810, "unit": "nM"}, {"measurement": "TGI", "setting": "[2]", "result": 13.2, "unit": "µM"}, {"measurement": "GI50", "setting": "[3]", "result": 3.16, "unit": "µM"}, {"measurement": "TGI", "setting": "[3]", "result": "> 100", "unit": "µM"}, {"measurement": "GI50", "setting": "[4]", "result": 3.49, "unit": "µM"}, {"measurement": "TGI", "setting": "[4]", "result": "> 100", "unit": "µM"}, {"measurement": "GI50", "setting": "[5]", "result": 5.47, "unit": "µM"}, {"measurement": "TGI", "setting": "[5]", "result": "> 100", "unit": "µM"}, {"measurement": "GI50", "setting": "[6]", "result": 2090, "unit": "nM"}, {"measurement": "TGI", "setting": "[6]", "result": 7.35, "unit": "µM"}, {"measurement": "GI50", "setting": "[7]", "result": 4.3, "unit": "µM"}, {"measurement": "TGI", "setting": "[7]", "result": "> 100", "unit": "µM"}, {"measurement": "GI50", "setting": "[8]", "result": 23.3, "unit": "µM"}, {"measurement": "TGI", "setting": "[8]", "result": "> 100", "unit": "µM"}, {"measurement": "GI50", "setting": "[9]", "result": 7.46, "unit": "µM"}, {"measurement": "TGI", "setting": "[9]", "result": "> 100", "unit": "µM"}, {"measurement": "GI50", "setting": "[10]", "result": 6.17, "unit": "µM"}, {"measurement": "TGI", "setting": "[10]", "result": "> 100", "unit": "µM"}, {"measurement": "GI50", "setting": "[11]", "result": 14.3, "unit": "µM"}, {"measurement": "TGI", "setting": "[11]", "result": "> 100", "unit": "µM"}, {"measurement": "GI50", "setting": "[12]", "result": 3.17, "unit": "µM"}, {"measurement": "TGI", "setting": "[12]", "result": "> 100", "unit": "µM"}, {"measurement": "GI50", "setting": "[13]", "result": 3.04, "unit": "µM"}, {"measurement": "TGI", "setting": "[13]", "result": "> 100", "unit": "µM"}, {"measurement": "GI50", "setting": "[14]", "result": 15.9, "unit": "µM"}, {"measurement": "TGI", "setting": "[14]", "result": "> 100", "unit": "µM"}, {"measurement": "GI50", "setting": "[15]", "result": 47.2, "unit": "µM"}, {"measurement": "TGI", "setting": "[15]", "result": "> 100", "unit": "µM"}, {"measurement": "GI50", "setting": "[16]", "result": 3.79, "unit": "µM"}, {"measurement": "TGI", "setting": "[16]", "result": "> 100", "unit": "µM"}, {"measurement": "GI50", "setting": "[17]", "result": 6.57, "unit": "µM"}, {"measurement": "TGI", "setting": "[17]", "result": "> 100", "unit": "µM"}, {"measurement": "GI50", "setting": "[18]", "result": 6, "unit": "µM"}, {"measurement": "TGI", "setting": "[18]", "result": "> 100", "unit": "µM"}, {"measurement": "GI50", "setting": "[19]", "result": 2810, "unit": "nM"}, {"measurement": "TGI", "setting": "[19]", "result": 50.8, "unit": "µM"}, {"measurement": "GI50", "setting": "[20]", "result": 4.07, "unit": "µM"}, {"measurement": "TGI", "setting": "[20]", "result": 90.1, "unit": "µM"}, {"measurement": "GI50", "setting": "[21]", "result": 4.85, "unit": "µM"}, {"measurement": "TGI", "setting": "[21]", "result": 31.7, "unit": "µM"}, {"measurement": "GI50", "setting": "[22]", "result": 5.47, "unit": "µM"}, {"measurement": "TGI", "setting": "[22]", "result": "> 100", "unit": "µM"}, {"measurement": "GI50", "setting": "[23]", "result": 4.57, "unit": "µM"}, {"measurement": "TGI", "setting": "[23]", "result": 17.5, "unit": "µM"}, {"measurement": "GI50", "setting": "[24]", "result": 2060, "unit": "nM"}, {"measurement": "TGI", "setting": "[24]", "result": 4.93, "unit": "µM"}, {"measurement": "GI50", "setting": "[25]", "result": 3.54, "unit": "µM"}, {"measurement": "TGI", "setting": "[25]", "result": 34.6, "unit": "µM"}, {"measurement": "GI50", "setting": "[26]", "result": 3.23, "unit": "µM"}, {"measurement": "TGI", "setting": "[26]", "result": "> 100", "unit": "µM"}, {"measurement": "GI50", "setting": "[27]", "result": 4.18, "unit": "µM"}, {"measurement": "TGI", "setting": "[27]", "result": "> 100", "unit": "µM"}, {"measurement": "GI50", "setting": "[28]", "result": 2770, "unit": "nM"}, {"measurement": "TGI", "setting": "[28]", "result": 7.92, "unit": "µM"}, {"measurement": "GI50", "setting": "[29]", "result": 3.41, "unit": "µM"}, {"measurement": "TGI", "setting": "[29]", "result": "> 100", "unit": "µM"}, {"measurement": "GI50", "setting": "[30]", "result": 1760, "unit": "nM"}, {"measurement": "TGI", "setting": "[30]", "result": 5.95, "unit": "µM"}, {"measurement": "GI50", "setting": "[31]", "result": 55.3, "unit": "µM"}, {"measurement": "TGI", "setting": "[31]", "result": "> 100", "unit": "µM"}, {"measurement": "GI50", "setting": "[32]", "result": 2610, "unit": "nM"}, {"measurement": "TGI", "setting": "[32]", "result": 12.8, "unit": "µM"}, {"measurement": "GI50", "setting": "[33]", "result": 37.2, "unit": "µM"}, {"measurement": "TGI", "setting": "[33]", "result": "> 100", "unit": "µM"}, {"measurement": "GI50", "setting": "[34]", "result": 8.79, "unit": "µM"}, {"measurement": "TGI", "setting": "[34]", "result": "> 100", "unit": "µM"}, {"measurement": "GI50", "setting": "[35]", "result": 2230, "unit": "nM"}, {"measurement": "TGI", "setting": "[35]", "result": 6.96, "unit": "µM"}, {"measurement": "GI50", "setting": "[36]", "result": 5.41, "unit": "µM"}, {"measurement": "TGI", "setting": "[36]", "result": "> 100", "unit": "µM"}, {"measurement": "GI50", "setting": "[37]", "result": 12.4, "unit": "µM"}, {"measurement": "TGI", "setting": "[37]", "result": 61, "unit": "µM"}, {"measurement": "GI50", "setting": "[38]", "result": 2510, "unit": "nM"}, {"measurement": "TGI", "setting": "[38]", "result": 5.94, "unit": "µM"}, {"measurement": "GI50", "setting": "[39]", "result": 30.1, "unit": "µM"}, {"measurement": "TGI", "setting": "[39]", "result": "> 100", "unit": "µM"}, {"measurement": "GI50", "setting": "[40]", "result": 5.19, "unit": "µM"}, {"measurement": "TGI", "setting": "[40]", "result": 26.5, "unit": "µM"}, {"measurement": "GI50", "setting": "[41]", "result": 19.8, "unit": "µM"}, {"measurement": "TGI", "setting": "[41]", "result": 91.9, "unit": "µM"}, {"measurement": "GI50", "setting": "[42]", "result": 4.22, "unit": "µM"}, {"measurement": "TGI", "setting": "[42]", "result": 31, "unit": "µM"}, {"measurement": "GI50", "setting": "[43]", "result": 24.1, "unit": "µM"}, {"measurement": "TGI", "setting": "[43]", "result": "> 100", "unit": "µM"}, {"measurement": "GI50", "setting": "[44]", "result": 5.05, "unit": "µM"}, {"measurement": "TGI", "setting": "[44]", "result": 30.3, "unit": "µM"}, {"measurement": "GI50", "setting": "[45]", "result": 8.11, "unit": "µM"}, {"measurement": "TGI", "setting": "[45]", "result": "> 100", "unit": "µM"}, {"measurement": "GI50", "setting": "[46]", "result": 4.54, "unit": "µM"}, {"measurement": "TGI", "setting": "[46]", "result": "> 100", "unit": "µM"}, {"measurement": "GI50", "setting": "[47]", "result": 9.39, "unit": "µM"}, {"measurement": "TGI", "setting": "[47]", "result": "> 100", "unit": "µM"}, {"measurement": "GI50", "setting": "[48]", "result": 8, "unit": "µM"}, {"measurement": "TGI", "setting": "[48]", "result": "> 100", "unit": "µM"}, {"measurement": "GI50", "setting": "[49]", "result": 3.4, "unit": "µM"}, {"measurement": "TGI", "setting": "[49]", "result": 27, "unit": "µM"}, {"measurement": "GI50", "setting": "[50]", "result": 3.52, "unit": "µM"}, {"measurement": "TGI", "setting": "[50]", "result": 22.4, "unit": "µM"}, {"measurement": "GI50", "setting": "[51]", "result": 2210, "unit": "nM"}, {"measurement": "TGI", "setting": "[51]", "result": 4.81, "unit": "µM"}, {"measurement": "GI50", "setting": "[52]", "result": 4.03, "unit": "µM"}, {"measurement": "TGI", "setting": "[52]", "result": 24, "unit": "µM"}]}]}
